Target: Equilibrative nucleoside transporter 1 (Homo sapiens) (UniProt Q99808)
Test: PubChem AID 1745859
Details: U2OS JumpIn-ENT1 cells, TRACT impedance, adenosine response

Equilibrative nucleoside transporter 1 (Homo sapiens), sequence (Q99808 whole entry, looked up): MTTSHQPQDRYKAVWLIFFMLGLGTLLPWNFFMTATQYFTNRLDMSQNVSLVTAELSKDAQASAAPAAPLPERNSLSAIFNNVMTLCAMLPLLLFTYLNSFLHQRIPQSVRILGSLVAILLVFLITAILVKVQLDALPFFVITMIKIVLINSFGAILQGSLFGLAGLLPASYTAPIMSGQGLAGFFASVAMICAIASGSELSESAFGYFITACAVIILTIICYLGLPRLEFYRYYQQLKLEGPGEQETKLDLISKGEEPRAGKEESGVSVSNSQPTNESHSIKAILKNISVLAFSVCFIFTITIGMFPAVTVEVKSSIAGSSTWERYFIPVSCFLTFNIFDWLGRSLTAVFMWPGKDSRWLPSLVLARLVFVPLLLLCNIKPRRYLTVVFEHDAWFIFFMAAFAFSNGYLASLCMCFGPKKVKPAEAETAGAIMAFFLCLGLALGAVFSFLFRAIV

IC50: 5.31 nM
Compound: NC(=O)C1CN(CCCCC(c2ccc(F)cc2)c2ccc(F)cc2)CCN1CC(=O)Nc1c(Cl)cc(N)cc1Cl (stereo unspecified)

— PubChem BioAssay AID1745859
